Earlier results, collected in patent US8187800B2, “Methods for selecting active agents for cancer treatment” (Precision Therapeutics, Inc., priority 2007, dated 2012).

Test system: breast cancer
Conditions: neoadjuvant therapy in breast cancer patients; 4 cycles FEC, then 4 cycles docetaxel

CC(=O)O[C@@]12CO[C@@H]1C[C@H](O)[C@@]1(C)C(=O)[C@H](O)C3=C(C)[C@@H](OC(=O)[C@H](O)[C@@H](NC(=O)OC(C)(C)C)c4ccccc4)C[C@@](O)([C@@H](OC(=O)c4ccccc4)[C@H]21)C3(C)C [docetaxel]
overall clinical response: 75%
